Laboratory results: patent publication US12077503B2, “Substituted cyclic amides and their use as herbicides” (FMC CORPORATION, priority 2015, dated 2024)

How the values were obtained:
Experiment in all cases: Test C preemergence
Assay type in all cases: in vivo
[1] = test system: wheat (winter wheat, Triticum aestivum); conditions: for Plant response rating, Wheat: scale 0 to 100, 0 no effect, 100 complete control
Procedure, shortened: (§1)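 Assessment: visual, 13–15 d after treatment, 0 (no effect) to 100 (complete control) relative to controls. Treatment: preemergence to seeds in loam-sand soil, or postemergence to 1- to 4-leaf plants in peat-based medium. Formulation: non-phytotoxic solvent mixture with surfactant.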

[2] = test system: morningglory (Ipomoea coccinea); conditions: for Plant response rating, Morningglory: scale 0 to 100, 0 no effect, 100 complete control
Procedure, shortened: as §1

[3] = test system: barnyardgrass (Echinochloa crus-galli); conditions: for Plant response rating, Barnyardgrass: scale 0 to 100, 0 no effect, 100 complete control
Procedure, shortened: as §1

[4] = test system: ragweed (common ragweed, Ambrosia elatior); conditions: for Plant response rating, Ragweed: scale 0 to 100, 0 no effect, 100 complete control
Procedure, shortened: as §1

[5] = test system: blackgrass (Alopecurus myosuroides); conditions: for Plant response rating, Blackgrass: scale 0 to 100, 0 no effect, 100 complete control
Procedure, shortened: as §1

[6] = test system: pigweed (Amaranthus retroflexus); conditions: for Plant response rating, Pigweed: scale 0 to 100, 0 no effect, 100 complete control
Procedure, shortened: as §1

[7] = test system: waterhemp (common waterhemp, Amaranthus rudis); conditions: for Plant response rating, Waterhemp: scale 0 to 100, 0 no effect, 100 complete control
Procedure, shortened: as §1

[8] = test system: nutsedge, yellow (yellow nutsedge, Cyperus esculentus); conditions: for Plant response rating, Nutsedge, Yellow: scale 0 to 100, 0 no effect, 100 complete control
Procedure, shortened: as §1

[9] = test system: oilseed rape (Brassica napus); conditions: for Plant response rating, Oilseed Rape: scale 0 to 100, 0 no effect, 100 complete control
Procedure, shortened: as §1

[10] = test system: velvetleaf (Abutilon theophrasti); conditions: for Plant response rating, Velvetleaf: scale 0 to 100, 0 no effect, 100 complete control
Procedure, shortened: as §1

[11] = test system: Galium (catchweed bedstraw, Galium aparine); conditions: for Plant response rating, Galium: scale 0 to 100, 0 no effect, 100 complete control
Procedure, shortened: as §1

[12] = test system: ryegrass, Italian (Italian ryegrass, Lolium multiflorum); conditions: for Plant response rating, Ryegrass, Italian: scale 0 to 100, 0 no effect, 100 complete control
Procedure, shortened: as §1

corn (Zea mays) = conditions: for Plant response rating, Corn: scale 0 to 100, 0 no effect, 100 complete control
Procedure, shortened: as §1

soybean (Glycine max) = conditions: for Plant response rating, Soybean: scale 0 to 100, 0 no effect, 100 complete control
Procedure, shortened: as §1

[13] = test system: crabgrass, large (large crabgrass, Digitaria sanguinalis); conditions: for Plant response rating, Crabgrass, Large: scale 0 to 100, 0 no effect, 100 complete control
Procedure, shortened: as §1

[14] = test system: foxtail, giant (giant foxtail, Setaria faberii); conditions: for Plant response rating, Foxtail, Giant: scale 0 to 100, 0 no effect, 100 complete control
Procedure, shortened: as §1

[15] = test system: johnsongrass (Sorghum halepense); conditions: for Plant response rating, Johnsongrass: scale 0 to 100, 0 no effect, 100 complete control
Procedure, shortened: as §1

[16] = 31 g ai/ha, 0 is no effect, 100 is complete control

Structure (SMILES): O=C1NCC(c2cccc(OC(F)(F)C(F)F)c2)C1C(=O)Nc1cccc(F)c1F (racemic) [Compound 697]
- Plant response rating (scale of 0 to 100), Wheat [1, 16]: 0
- Plant response rating, Wheat ([1]; 62 g ai/ha): 0
- Plant response rating, Wheat ([1]; 125 g ai/ha): 10
- Plant response rating, Wheat ([1]; 250 g ai/ha): 35
- Plant response rating (scale of 0 to 100), Morningglory [2, 16]: 10
- Plant response rating, Morningglory ([2]; 62 g ai/ha): 10
- Plant response rating, Morningglory ([2]; 125 g ai/ha): 25
- Plant response rating, Morningglory ([2]; 250 g ai/ha): 30
- Plant response rating (scale of 0 to 100), Barnyardgrass [3, 16]: 85
- Plant response rating, Barnyardgrass ([3]; 62 g ai/ha): 90
- Plant response rating, Barnyardgrass ([3]; 125 g ai/ha): 90
- Plant response rating, Barnyardgrass ([3]; 250 g ai/ha): 90
- Plant response rating (scale of 0 to 100), Ragweed [4, 16]: 60
- Plant response rating, Ragweed ([4]; 62 g ai/ha): 80
- Plant response rating, Ragweed ([4]; 125 g ai/ha): 80
- Plant response rating, Ragweed ([4]; 250 g ai/ha): 80
- Plant response rating (scale of 0 to 100), Blackgrass [5, 16]: 70
- Plant response rating, Blackgrass ([5]; 62 g ai/ha): 75
- Plant response rating, Blackgrass ([5]; 125 g ai/ha): 90
- Plant response rating, Blackgrass ([5]; 250 g ai/ha): 90
- Plant response rating (scale of 0 to 100), Pigweed [6, 16]: 75
- Plant response rating, Pigweed ([6]; 62 g ai/ha): 80
- Plant response rating, Pigweed ([6]; 125 g ai/ha): 85
- Plant response rating, Pigweed ([6]; 250 g ai/ha): 85
- Plant response rating (scale of 0 to 100), Waterhemp [7, 16]: 80
- Plant response rating, Waterhemp ([7]; 62 g ai/ha): 80
- Plant response rating, Waterhemp ([7]; 125 g ai/ha): 85
- Plant response rating, Waterhemp ([7]; 250 g ai/ha): 85
- Plant response rating (scale of 0 to 100), Nutsedge, Yellow [8, 16]: 0
- Plant response rating, Nutsedge, Yellow ([8]; 62 g ai/ha): 0
- Plant response rating, Nutsedge, Yellow ([8]; 125 g ai/ha): 0
- Plant response rating, Nutsedge, Yellow ([8]; 250 g ai/ha): 0
- Plant response rating (scale of 0 to 100), Oilseed Rape [9, 16]: 20
- Plant response rating, Oilseed Rape ([9]; 62 g ai/ha): 70
- Plant response rating, Oilseed Rape ([9]; 125 g ai/ha): 80
- Plant response rating, Oilseed Rape ([9]; 250 g ai/ha): 85
- Plant response rating (scale of 0 to 100), Velvetleaf [10, 16]: 0
- Plant response rating, Velvetleaf ([10]; 62 g ai/ha): 25
- Plant response rating, Velvetleaf ([10]; 125 g ai/ha): 65
- Plant response rating, Velvetleaf ([10]; 250 g ai/ha): 35
- Plant response rating (scale of 0 to 100), Galium [11, 16]: 0
- Plant response rating, Galium ([11]; 62 g ai/ha): 85
- Plant response rating, Galium ([11]; 125 g ai/ha): 85
- Plant response rating, Galium ([11]; 250 g ai/ha): 90
- Plant response rating (scale of 0 to 100), Ryegrass, Italian [12, 16]: 15
- Plant response rating, Ryegrass, Italian ([12]; 62 g ai/ha): 55
- Plant response rating, Ryegrass, Italian ([12]; 125 g ai/ha): 45
- Plant response rating, Ryegrass, Italian ([12]; 250 g ai/ha): 50
- Plant response rating (scale of 0 to 100), Corn (corn (Zea mays); [16]): 40
- Plant response rating, Corn (corn (Zea mays); 62 g ai/ha): 65
- Plant response rating, Corn (corn (Zea mays); 125 g ai/ha): 80
- Plant response rating, Corn (corn (Zea mays); 250 g ai/ha): 75
- Plant response rating (scale of 0 to 100), Soybean (soybean (Glycine max); [16]): 0
- Plant response rating, Soybean (soybean (Glycine max); 62 g ai/ha): 10
- Plant response rating, Soybean (soybean (Glycine max); 125 g ai/ha): 0
- Plant response rating, Soybean (soybean (Glycine max); 250 g ai/ha): 10
- Plant response rating (scale of 0 to 100), Crabgrass, Large [13, 16]: 90
- Plant response rating, Crabgrass, Large ([13]; 62 g ai/ha): 95
- Plant response rating, Crabgrass, Large ([13]; 125 g ai/ha): 90
- Plant response rating, Crabgrass, Large ([13]; 250 g ai/ha): 95
- Plant response rating (scale of 0 to 100), Foxtail, Giant [14, 16]: 85
- Plant response rating, Foxtail, Giant ([14]; 62 g ai/ha): 85
- Plant response rating, Foxtail, Giant ([14]; 125 g ai/ha): 90
- Plant response rating, Foxtail, Giant ([14]; 250 g ai/ha): 90
- Plant response rating (scale of 0 to 100), Johnsongrass [15, 16]: 70
- Plant response rating, Johnsongrass ([15]; 62 g ai/ha): 75
- Plant response rating, Johnsongrass ([15]; 125 g ai/ha): 85
- Plant response rating, Johnsongrass ([15]; 250 g ai/ha): 85
